The values below are quoted from earlier work in patent US20120289547A1, “COMBINATIONS OF PROPIVERINE AND SALIVARY STIMULANTS FOR THE TREATMENT OF OVERACTIVE BLADDER” (THERAVIDA, INC., priority 2011, published 2012).

The conditions of this data set: 5 mg of pilocarpine.

In the case of `CC[C@@H]1C(=O)OC[C@@H]1Cc1cncn1C` [pilocarpine], the “Time of maximum saliva output after administration” value was “about 30 minutes”.
